Laboratory results as given in patent US5102786A, “Biological diagnostic assay system” (PB Diagnostic Systems, Inc., priority 1987, dated 1992).

Legend:
[1] = target: T1, plasma proteins (Homo sapiens, UniProt P02768); experiment: in vitro; format: binding
T1 construct: Experiments were conducted with a set of plasma solutions in HEPES buffer; from tissue; host or cells: plasma
Method: Experiments were conducted with a set of plasma solutions in HEPES buffer containing ^14 C-labeled phenytoin (9.3×10^-5 M) and varying amounts of PNS.

[2] = target: Human Serum Albumin (HSA) (Homo sapiens, UniProt P02768); experiment: Displacement of sulforhodamine 101 from human serum albumin (Centricon 30 filtration, absorbance 586 nm); format: binding
Human Serum Albumin (HSA), sequence (P02768 25-609): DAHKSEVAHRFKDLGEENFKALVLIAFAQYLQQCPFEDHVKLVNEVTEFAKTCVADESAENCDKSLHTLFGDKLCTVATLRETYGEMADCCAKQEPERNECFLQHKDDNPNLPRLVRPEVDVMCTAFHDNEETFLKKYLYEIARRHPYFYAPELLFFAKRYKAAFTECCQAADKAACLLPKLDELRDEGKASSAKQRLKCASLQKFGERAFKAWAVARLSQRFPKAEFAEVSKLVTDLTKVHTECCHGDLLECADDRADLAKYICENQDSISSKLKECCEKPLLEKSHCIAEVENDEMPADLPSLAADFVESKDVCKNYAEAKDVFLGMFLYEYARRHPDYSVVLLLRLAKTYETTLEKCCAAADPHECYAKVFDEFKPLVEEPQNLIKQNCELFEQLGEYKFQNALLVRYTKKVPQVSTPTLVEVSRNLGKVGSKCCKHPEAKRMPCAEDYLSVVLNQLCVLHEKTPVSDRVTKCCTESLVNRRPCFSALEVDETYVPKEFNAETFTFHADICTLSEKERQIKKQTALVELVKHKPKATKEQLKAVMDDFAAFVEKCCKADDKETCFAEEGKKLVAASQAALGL
Method: Two sets of aqueous solutions, 1.05×10^-5 M in sulforhodamine 101, were prepared in HEPES buffer with varying amounts of HSA.

[3] = system: B-phycoerythrin; experiment: Fluorescent emission of B-phycoerythrin as a function of PNS and ANS; settings: for effect on fluorescence emission of B-phycoerythrin in solution (in words): 0.125-0.50% agent
Method: (§1) The fluorescent emissions of B- and R-phycoerythrin were studied as a function of PNS and 8-anilino-1-naphthalene sulfonic acid (ANS). The experiments were conducted with solutions of the phycoerythrin (1.7×10^-10 M) in HEPES buffer containing varying amounts of PNS and ANS. The phycoerythrins were excited at 560 nm and their emissions measured at 575 nm.

[4] = system: R-phycoerythrin; experiment: Fluorescent emission of R-phycoerythrin as a function of PNS and ANS; settings: for effect on fluorescence emission of R-phycoerythrin in solution (in words): 0.125-0.50% agent
Method: as §1

[5] = Displacement of phenobarbital from plasma protein (filtration through Centricon PM 10, scintillation counting); settings: human, plasma
[6] = target: T2, HSA (Homo sapiens, UniProt P02768); experiment: Displacement of fluorescein from HSA (Centricon 30 filtration, 490 nm)
T2 sequence (P02768 25-609): as above
Method: (§2) Experiments were carried out with fluorescein and a fluorescein-theophylline conjugate, respectively, dissolved in HEPES buffer and containing various amounts of HSA. […] The solutions were centrifuged through a Centricon 30 filter at 5000 g and the filtrates were scanned at 490 nm.

[7] = Solubility of PNS in water; format: physicochemical
[8] = system: plasma proteins; experiment: Displacement of phenobarbital from plasma protein (filtration through Centricon PM 10, scintillation counting)
[9] = system: plasma proteins; experiment: Displacement of a theophylline-rhodamine conjugate from plasma proteins (Centricon 30 filtration, 500-600 nm); format: binding, human
Text: The solutions were centrifuged through a Centricon 30 filter at 5000 g and the filtrates were scanned on a Perkin Elmer λ9 Spectrophotometer at 500-600 nm.

[10] = target: T2, HSA; experiment: Displacement of a fluorescein-theophylline conjugate from HSA (Centricon 30 filtration, 490 nm); format: binding; parameters: CONJUGATE (free conjugate in filtrate): unit not given here; settings: 0.2% PNS
Method: as §2

[11] = 0.125% PNS or ANS, excited at 560 nm, emission 575 nm, HEPES buffer

T1 sequence (P02768 25-609): as above

O=C1NC(=O)C(c2ccccc2)(c2ccccc2)N1 [phenytoin, reference compound]
fraction unbound at 93 µM ([1]; plasma): 0.119

O=S(=O)([O-])c1cc(S(=O)(=O)O)ccc1C1=c2cc3c4c(c2Oc2c1cc1c5c2CCCN5CCC1)CCC[N+]=4CCC3 [sulforhodamine 101, reference compound]
% SULFORHODAMINE 101 (PASSED THROUGH FILTER) ([2]; CONTROL (no PNS), 0% HSA, HEPES buffer, 10.5 µM): 100%
% SULFORHODAMINE 101 (PASSED THROUGH FILTER) ([2]; CONTROL (no PNS), 0.032% HSA, 10.5 µM): 83%
% SULFORHODAMINE 101 (PASSED THROUGH FILTER) ([2]; CONTROL (no PNS), 0.064% HSA, 10.5 µM): 50%
% SULFORHODAMINE 101 (PASSED THROUGH FILTER) ([2]; CONTROL (no PNS), 0.13% HSA, 10.5 µM): 32%
% SULFORHODAMINE 101 (PASSED THROUGH FILTER) ([2]; CONTROL (no PNS), 0.16% HSA, 10.5 µM): 23%
% SULFORHODAMINE 101 (PASSED THROUGH FILTER) ([2]; CONTROL (no PNS), 0.32% HSA, 10.5 µM): 10%
% SULFORHODAMINE 101 (PASSED THROUGH FILTER) ([2]; CONTROL (no PNS), 0.48% HSA, 10.5 µM): 6%

O=S(=O)(O)c1cccc2cccc(Nc3ccccc3)c12 [ANS, 8-anilino-1-naphthalene sulfonic acid, reference compound]
B-phycoerythrin rel. fl. intensity in the presence of PNS or ANS [3, 11]: 0.61
effect on fluorescence emission of B-phycoerythrin in solution (in words) [3]: quenches the emissions of both phycoerythrins very strongly
B-phycoerythrin rel. fl. intensity in the presence of PNS or ANS ([3]; 0.25% PNS or ANS): 0.43
B-phycoerythrin rel. fl. intensity in the presence of PNS or ANS ([3]; 0.375% PNS or ANS): 0.33
B-phycoerythrin rel. fl. intensity in the presence of PNS or ANS ([3]; 0.50% PNS or ANS): 0.25
R-phycoerythrin rel. fl. intensity in the presence of PNS or ANS [4, 11]: 0.72
effect on fluorescence emission of R-phycoerythrin in solution (in words) [4]: quenches the emissions of both phycoerythrins very strongly
R-phycoerythrin rel. fl. intensity in the presence of PNS or ANS ([4]; 0.25% PNS or ANS): 0.54
R-phycoerythrin rel. fl. intensity in the presence of PNS or ANS ([4]; 0.375% PNS or ANS): 0.40
R-phycoerythrin rel. fl. intensity in the presence of PNS or ANS ([4]; 0.50% PNS or ANS): 0.29

CCC1(c2ccccc2)C(=O)NC(=O)NC1=O [phenobarbital, reference compound]
fraction unbound [5]: ~0.55
fraction unbound at 1 h [5]: 0.555

O=C1OC2(c3ccc(O)cc3Oc3cc(O)ccc32)c2ccccc21 [fluorescein, reference compound]
DYE (free dye in filtrate) ([6]; CONTROL (no PNS), 0% HSA, HEPES buffer): 100
DYE (free dye in filtrate) ([6]; CONTROL (no PNS), 0.075% HSA): 83
DYE (free dye in filtrate) ([6]; CONTROL (no PNS), 0.15% HSA): 69
DYE (free dye in filtrate) ([6]; CONTROL (no PNS), 0.3% HSA): 52
DYE (free dye in filtrate) ([6]; CONTROL (no PNS), 0.5% HSA): 40
DYE (free dye in filtrate) ([6]; CONTROL (no PNS), 0.6% HSA): 35
DYE (free dye in filtrate) ([6]; CONTROL (no PNS), 1.0% HSA): 24
DYE (free dye in filtrate) ([6]; CONTROL (no PNS), 1.2% HSA): 20
DYE (free dye in filtrate) ([6]; CONTROL (no PNS), 1.5% HSA): 17

O=S(=O)(O)c1cccc2cccc(Oc3ccccc3)c12 [PNS, 1-phenoxynaphthalene-8-sulfonic acid]
B-phycoerythrin rel. fl. intensity in the presence of PNS or ANS [3, 11]: 1.0
effect on fluorescence emission of B-phycoerythrin in solution (in words) [3]: does not affect the fluorescence emissions
B-phycoerythrin rel. fl. intensity in the presence of PNS or ANS ([3]; 0.25% PNS or ANS): 1.0
B-phycoerythrin rel. fl. intensity in the presence of PNS or ANS ([3]; 0.375% PNS or ANS): 1.0
B-phycoerythrin rel. fl. intensity in the presence of PNS or ANS ([3]; 0.50% PNS or ANS): 1.0
% Phenytoin (±3) passed through filter ([1]; 0.1% PNS): 97.5%
providing free phenytoin (in words) ([1]; 0.1-0.5% PNS): very effective in providing free phenytoin
% Phenytoin (±3) passed through filter ([1]; 0.2% PNS): 98.6%
% Phenytoin (±3) passed through filter ([1]; 0.3% PNS): 98.7%
% Phenytoin (±3) passed through filter ([1]; 0.4% PNS): 98.6%
% Phenytoin (±3) passed through filter ([1]; 0.5% PNS): 96.7%
providing free dye (in words) ([6]; 0.2% PNS): effective in providing free dye and free conjugate
DYE (free dye in filtrate) ([6]; 0.2% PNS, 0% HSA): 100
DYE (free dye in filtrate) ([6]; 0.2% PNS, 0.075% HSA): 99
DYE (free dye in filtrate) ([6]; 0.2% PNS, 0.15% HSA): 97
DYE (free dye in filtrate) ([6]; 0.2% PNS, 0.3% HSA): 98
DYE (free dye in filtrate) ([6]; 0.2% PNS, 0.6% HSA): 93
DYE (free dye in filtrate) ([6]; 0.2% PNS, 0.9% HSA): 92
DYE (free dye in filtrate) ([6]; 0.2% PNS, 1.2% HSA): 89
DYE (free dye in filtrate) ([6]; 0.2% PNS, 1.5% HSA): 88
solubility in water ([7]; pH range of interest (above 3, preferably 6 to 8)): soluble in water at the required concentrations
solubility in water ([7]; very low pH, below pH 3): precipitate from solution
providing free sulforhodamine 101 (in words) ([2]; 0.2% PNS): very effective in providing free sulforhodamine 101
% SULFORHODAMINE 101 (PASSED THROUGH FILTER) ([2]; 0.2% PNS, 0% HSA): 100%
% SULFORHODAMINE 101 (PASSED THROUGH FILTER) ([2]; 0.2% PNS, 0.032% HSA): 99%
% SULFORHODAMINE 101 (PASSED THROUGH FILTER) ([2]; 0.2% PNS, 0.064% HSA): 94%
% SULFORHODAMINE 101 (PASSED THROUGH FILTER) ([2]; 0.2% PNS, 0.13% HSA): 88%
% SULFORHODAMINE 101 (PASSED THROUGH FILTER) ([2]; 0.2% PNS, 0.16% HSA): 83%
% SULFORHODAMINE 101 (PASSED THROUGH FILTER) ([2]; 0.2% PNS, 0.32% HSA): 68%
% SULFORHODAMINE 101 (PASSED THROUGH FILTER) ([2]; 0.2% PNS, 0.48% HSA): 61%
R-phycoerythrin rel. fl. intensity in the presence of PNS or ANS [4, 11]: 1.0
effect on fluorescence emission of R-phycoerythrin in solution (in words) [4]: does not affect the fluorescence emissions
R-phycoerythrin rel. fl. intensity in the presence of PNS or ANS ([4]; 0.25% PNS or ANS): 0.99
R-phycoerythrin rel. fl. intensity in the presence of PNS or ANS ([4]; 0.375% PNS or ANS): 0.99
R-phycoerythrin rel. fl. intensity in the presence of PNS or ANS ([4]; 0.50% PNS or ANS): 0.98
% PHENOBARBITAL (±3%) (passed through filter) ([8]; 0.02% PNS in human plasma): 62.7%
% PHENOBARBITAL (±3%) (passed through filter) ([8]; 0.05% PNS in human plasma): 71.1%
% PHENOBARBITAL (±3%) (passed through filter) ([8]; 0.2% PNS in human plasma): 93.0%
% PHENOBARBITAL (±3%) (passed through filter) ([8]; 0.5% PNS in human plasma): 97.0%
dissociation of phenobarbital from plasma proteins (in words) ([8]; human, plasma): effective to dissociate phenobarbital from the plasma proteins
% CONJUGATE (free conjugate in the filtrate) ([9]; 0.2% PNS, 0% plasma): 100%
% CONJUGATE (free conjugate in the filtrate) ([9]; 0.2% PNS, 20% plasma): 94%
% CONJUGATE (free conjugate in the filtrate) ([9]; 0.2% PNS, 40% plasma): 88%
% CONJUGATE (free conjugate in the filtrate) ([9]; 0.2% PNS, 60% plasma): 87%
% CONJUGATE (free conjugate in the filtrate) ([9]; 0.2% PNS, 75% plasma): 89%
% CONJUGATE (free conjugate in the filtrate) ([9]; 0.2% PNS, 90% plasma): 88%
providing free conjugate (in words) ([9]; 0.2% PNS, human plasma): very effective in providing free conjugate
providing free conjugate (in words) [10]: effective in providing free dye and free conjugate
CONJUGATE (free conjugate in filtrate) ([10]; 0% HSA): 100
CONJUGATE (free conjugate in filtrate) ([10]; 0.075% HSA): 93
CONJUGATE (free conjugate in filtrate) ([10]; 0.15% HSA): 87
CONJUGATE (free conjugate in filtrate) ([10]; 0.3% HSA): 87
CONJUGATE (free conjugate in filtrate) ([10]; 0.6% HSA): 82
CONJUGATE (free conjugate in filtrate) ([10]; 0.9% HSA): 76
CONJUGATE (free conjugate in filtrate) ([10]; 1.2% HSA): 72
CONJUGATE (free conjugate in filtrate) ([10]; 1.5% HSA): 69

Cn1c(=O)c2[nH]c(CCCC(=O)N3CCN(C(=O)c4ccccc4C4=c5cc6c(cc5Oc5cc7c(cc54)CCCN7CC(=O)NCCS(=O)(=O)O)=[N+](CC(=O)NCCS(=O)(=O)[O-])CCC6)CC3)nc2n(C)c1=O [theophylline-rhodamine conjugate, reference compound]
% CONJUGATE (free conjugate in the filtrate) ([9]; CONTROL (no PNS), 0% plasma, 10 µM): 100%
% CONJUGATE (free conjugate in the filtrate) ([9]; CONTROL (no PNS), 5% plasma, 10 µM): 93%
% CONJUGATE (free conjugate in the filtrate) ([9]; CONTROL (no PNS), 20% plasma, 10 µM): 82%
% CONJUGATE (free conjugate in the filtrate) ([9]; CONTROL (no PNS), 45% plasma, 10 µM): 70%
% CONJUGATE (free conjugate in the filtrate) ([9]; CONTROL (no PNS), 65% plasma, 10 µM): 66%
% CONJUGATE (free conjugate in the filtrate) ([9]; CONTROL (no PNS), 85% plasma, 10 µM): 57%
% CONJUGATE (free conjugate in the filtrate) ([9]; CONTROL (no PNS), 95% plasma in HEPES buffer, 10 µM): 50%
